Results reported in ChEMBL document CHEMBL6078642, “Design, Synthesis, and Activity Evaluation of BRD4 PROTAC Based on Alkenyl Oxindole-DCAF11 Pair” (J Med Chem, 2024).
Calls of active or inactive are those of the source. No cut-off for these calls is given here.

What was measured:
DCAF11-BRD4 [1] = target: T1, DCAF11-BRD4 (Homo sapiens, UniProt O60885+Q8TEB1); assay: PROTAC activity at DCAF11/BRD4 BD1 domain (unknown origin) expressed in HEK293T cells assessed as induction of BRD4 degradation at 1 uM incubated for 12 hrs by Dual fluorescence reporter cell high content imaging analysis relative to control; format: cell-based
HEK293T = assay: Induction of BRD4 BD1 domain (unknown origin) degradation expressed in DCAF11 knockout HEK293T cells assessed as decrease in red fluorescence at 1 uM incubated for 12 hrs by dual fluorescence reporter cell based high content imaging analysis; settings: Homo sapiens
DCAF11-BRD4 [2] = target: T1, DCAF11-BRD4; assay: PROTAC activity at DCAF11/BRD4 in human MDA-MB-231 cells assessed as induction of BRD4 degradation at 10 to 100 nM incubated for 1 hrs by immunoblot analysis; format: cell-based; settings: dose 10-100 nM
MDA-MB-231 = assay: Antiproliferative activity against human MDA-MB-231 cells assessed as reduction in cell viability incubated for 2 days by CCK8 assay; format: functional, cell-based; settings: MDA-MB-231, 48 h
MDA-MB-468 = assay: Antiproliferative activity against human MDA-MB-468 cells assessed as reduction in cell viability incubated for 2 days by CCK8 assay; format: functional, cell-based; settings: MDA-MB-468, 48 h

T1 sequence (Q8TEB1 whole entry, looked up, other chains not shown, the tested form may be a part): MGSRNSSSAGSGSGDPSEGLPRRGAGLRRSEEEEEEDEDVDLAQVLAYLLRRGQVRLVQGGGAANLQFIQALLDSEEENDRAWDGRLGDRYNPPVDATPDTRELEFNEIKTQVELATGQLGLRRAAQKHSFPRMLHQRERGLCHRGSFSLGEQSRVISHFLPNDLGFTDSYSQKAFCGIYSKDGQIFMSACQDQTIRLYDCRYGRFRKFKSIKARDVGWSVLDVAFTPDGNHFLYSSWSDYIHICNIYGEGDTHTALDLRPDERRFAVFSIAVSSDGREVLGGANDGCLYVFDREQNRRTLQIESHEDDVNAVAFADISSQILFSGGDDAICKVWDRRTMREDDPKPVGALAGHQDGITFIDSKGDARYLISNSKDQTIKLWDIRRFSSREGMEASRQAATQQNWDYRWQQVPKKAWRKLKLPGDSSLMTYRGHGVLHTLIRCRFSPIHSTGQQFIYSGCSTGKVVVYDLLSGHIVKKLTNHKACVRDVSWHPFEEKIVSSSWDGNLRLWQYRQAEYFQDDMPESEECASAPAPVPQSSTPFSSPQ

| Compound | Activity (DCAF11-BRD4 [1]) | Activity (HEK293T) | Activity (DCAF11-BRD4 [2]) | IC50 (MDA-MB-231) | IC50 (MDA-MB-468) |
| --- | --- | --- | --- | --- | --- |
| Cc1ccc(OCC(=O)NCCOCCOCCOCCOCCNC(=O)C[C@@H]2N=C(c3ccc(Cl)cc3)c3c(sc(C)c3C)-n3c(C)nnc32)c(/C=C2/C(=O)Nc3cc(C(F)(F)F)ccc32)c1 (stereo in doubt) | > 35% | inactive | – | – | – |
| Cc1sc2c(c1C)C(c1ccc(Cl)cc1)=N[C@@H](CC(=O)NCCCOCCOCCOCCCNC(=O)COc1ccc(/C=C3/C(=O)Nc4ccc(F)cc43)cc1)c1nnc(C)n1-2 (stereo in doubt) | > 35% | inactive | – | – | – |
| Cc1sc2c(c1C)C(c1ccc(Cl)cc1)=N[C@@H](CC(=O)NCCCOCCOCCOCCCNC(=O)COc1ccc(/C=C3/C(=O)Nc4ccc(Br)cc43)cc1)c1nnc(C)n1-2 (stereo in doubt) | > 35% | inactive | Active | – | – |
| Cc1ncsc1-c1ccc(CNC(=O)[C@@H]2C[C@@H](O)CN2C(=O)[C@@H](NC(=O)COCCOCCOCCNC(=O)C[C@@H]2N=C(c3ccc(Cl)cc3)c3c(sc(C)c3C)-n3c(C)nnc32)C(C)(C)C)cc1 | – | – | – | 20 nM | 1200 nM |
| Cc1sc2c(c1C)C(c1ccc(Cl)cc1)=N[C@@H](CC(=O)NCCCOc1ccc(Br)cc1/C=C1/C(=O)Nc3cc(C(F)(F)F)ccc31)c1nnc(C)n1-2 | > 35% | inactive | – | – | – |
| Cc1sc2c(c1C)C(c1ccc(Cl)cc1)=N[C@@H](CC(=O)NCCCOc1c(Br)cc(/C=C3/C(=O)Nc4cc(C(F)(F)F)ccc43)cc1Br)c1nnc(C)n1-2 (stereo in doubt) | > 35% | inactive | – | – | – |
| Cc1ccc(OCC(=O)NCCCOCCOCCOCCCNC(=O)C[C@@H]2N=C(c3ccc(Cl)cc3)c3c(sc(C)c3C)-n3c(C)nnc32)c(/C=C2\C(=O)Nc3ccc(F)cc32)c1 (stereo in doubt) | > 35% | inactive | Active | – | – |
| Cc1sc2c(c1C)C(c1ccc(Cl)cc1)=N[C@@H](CC(=O)NCCCOCCOCCOCCCNC(=O)c1ccsc1/C=C1/C(=O)Nc3cc(C(F)(F)F)ccc31)c1nnc(C)n1-2 | – | inactive | – | – | – |
